Reference: patent US20100061982A1, “3-SUBSTITUTED-1H-INDOLE, 3-SUBSTITUTED-1H-PYRROLO[2,3-B]PYRIDINE AND 3-SUBSTITUTED-1H-PYRROLO[3,2-B]PYRIDINE COMPOUNDS, THEIR USE AS MTOR KINASE AND PI3 KINASE INHIBITORS, AND THEIR SYNTHESES” (priority 2008, published 2010)
pIC50: −log10 of the molar value. Converted amounts (≈) assume the structure as drawn. Like-named read-outs stand apart in the source and are kept apart here.

Legend:
[1] = CACO2 permeability a-b/b-a; assay type: in vitro ADME; conditions: human, Caco-2; for Papp A→B: a − b (first value of cell), read-out: CACO2 Pe a − b; for Papp B→A: b − a (second value of cell), read-out: CACO2 Pe b − a
[2] = Microsome Stability (15 min), human; assay type: in vitro ADME; conditions: microsomes
[3] = Microsome Stability (15 min), nude mouse; assay type: in vitro ADME; conditions: microsomes
[4] = Microsome Stability (15 min), rat; assay type: in vitro ADME; conditions: microsomes
[5] = Solubility pH 7.4; conditions: pH 7.4, aqueous buffer
[6] = PAMPA permeability pH 7.4
[7] = Buffer Stability (37° C.)
[8] = Plasma Stability (37° C.), rat
[9] = Plasma Stability (37° C.), nude mouse
[10] = In vivo blood/plasma and tumor levels of prodrug and metabolites after 50 mg, kg po; conditions: for plasma prodrug, Dosed @ 50 mg, kg po (precursor phenolic compound dosed) / plasma prodrug concentration / tumor prodrug concentration: 50 mg
[11] = target: PI3K alpha (Homo sapiens, UniProt P42336); assay: PI3K-alpha Fluorescence Polarization Assay; assay type: biochemical
Sequence of PI3K alpha (P42336 whole entry, species assumed): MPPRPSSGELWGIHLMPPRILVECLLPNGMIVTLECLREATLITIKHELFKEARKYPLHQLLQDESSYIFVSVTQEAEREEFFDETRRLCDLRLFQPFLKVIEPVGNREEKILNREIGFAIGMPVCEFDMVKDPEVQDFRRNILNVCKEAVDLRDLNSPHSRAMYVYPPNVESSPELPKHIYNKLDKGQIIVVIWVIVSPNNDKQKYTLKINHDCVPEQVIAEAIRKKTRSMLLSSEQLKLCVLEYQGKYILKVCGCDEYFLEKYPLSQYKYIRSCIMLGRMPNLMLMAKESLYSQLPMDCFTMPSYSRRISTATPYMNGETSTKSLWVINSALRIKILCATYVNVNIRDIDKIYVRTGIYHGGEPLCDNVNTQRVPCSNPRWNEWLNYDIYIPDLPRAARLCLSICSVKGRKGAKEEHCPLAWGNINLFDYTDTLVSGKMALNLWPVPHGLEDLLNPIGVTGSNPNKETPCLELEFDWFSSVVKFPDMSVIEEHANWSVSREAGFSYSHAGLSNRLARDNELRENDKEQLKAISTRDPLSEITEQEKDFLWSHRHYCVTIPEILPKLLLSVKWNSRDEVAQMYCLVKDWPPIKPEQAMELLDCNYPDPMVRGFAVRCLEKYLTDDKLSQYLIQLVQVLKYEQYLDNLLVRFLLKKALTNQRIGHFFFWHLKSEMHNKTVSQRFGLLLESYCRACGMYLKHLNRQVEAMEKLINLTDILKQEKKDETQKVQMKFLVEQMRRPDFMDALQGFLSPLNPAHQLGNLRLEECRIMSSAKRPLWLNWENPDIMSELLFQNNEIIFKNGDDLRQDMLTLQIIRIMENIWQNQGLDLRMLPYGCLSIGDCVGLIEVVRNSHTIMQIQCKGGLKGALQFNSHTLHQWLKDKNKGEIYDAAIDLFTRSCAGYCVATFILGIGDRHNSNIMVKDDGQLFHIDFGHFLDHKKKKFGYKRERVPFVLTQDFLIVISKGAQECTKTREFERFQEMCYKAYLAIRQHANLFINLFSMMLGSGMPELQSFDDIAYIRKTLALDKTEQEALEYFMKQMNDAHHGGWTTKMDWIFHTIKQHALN
Sequence of PI3K alpha (P27986 whole entry partner, species assumed): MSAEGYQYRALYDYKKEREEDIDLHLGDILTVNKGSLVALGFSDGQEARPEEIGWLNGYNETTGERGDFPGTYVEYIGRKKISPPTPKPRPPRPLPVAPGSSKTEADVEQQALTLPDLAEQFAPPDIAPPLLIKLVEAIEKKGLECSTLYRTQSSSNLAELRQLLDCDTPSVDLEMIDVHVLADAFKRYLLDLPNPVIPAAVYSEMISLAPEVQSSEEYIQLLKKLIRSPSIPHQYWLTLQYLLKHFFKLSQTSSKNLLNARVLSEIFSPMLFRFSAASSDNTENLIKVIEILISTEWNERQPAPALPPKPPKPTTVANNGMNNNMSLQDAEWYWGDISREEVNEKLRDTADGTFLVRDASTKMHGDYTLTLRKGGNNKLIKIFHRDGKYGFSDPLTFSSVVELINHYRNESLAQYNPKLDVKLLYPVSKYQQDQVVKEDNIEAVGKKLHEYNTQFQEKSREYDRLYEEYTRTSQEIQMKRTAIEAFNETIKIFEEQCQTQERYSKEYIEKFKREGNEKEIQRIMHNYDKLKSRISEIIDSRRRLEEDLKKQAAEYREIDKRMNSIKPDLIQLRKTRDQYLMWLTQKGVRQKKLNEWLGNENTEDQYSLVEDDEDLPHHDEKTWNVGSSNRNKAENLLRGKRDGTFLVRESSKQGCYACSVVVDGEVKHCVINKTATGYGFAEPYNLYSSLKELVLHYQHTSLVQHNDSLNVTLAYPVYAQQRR

[12] = Phase I (NADPH), read-out: Microsome Stability (15 min) T ½ Phase I human
[13] = value after the slash in Table VIc, read-out: Microsome Stability (15 min) T ½ human, second value of cell
[14] = nude, mouse, Phase I (NADPH), read-out: Microsome Stability (15 min) T ½ Phase I nude mouse
[15] = Phase I (NADPH), read-out: Microsome Stability (15 min) T ½ Phase I rat
[16] = Phase I (NADPH), read-out: Microsome Stability (15 min) T ½ Phase I nude mouse

COc1ccc2c(c1)c(/C=C1\Oc3cc(O)cc(O)c3C1=O)cn2CCCN(C)C [(2Z)-2-({1-[3-(dimethylamino)propyl]-5-methoxy-1H-indol-3-yl}methylene)-4,6-dihydroxy-1-benzofuran-3(2H)-one]
Papp A→B [1]: 3.9 ×10⁻⁶ cm/s
Papp B→A [1]: 27 ×10⁻⁶ cm/s
half-life [2, 12]: > 30 min
half-life [2, 13]: 28 min
half-life [3, 14]: 15 min
half-life [4, 15]: 6 min
solubility [5]: 33 µg/mL (≈ 80.8 µM)
PAMPA Pe [6]: 0 10e−6 cm/s
Buffer Stability (37° C.) % Remaining (at 16-23 hours) SGF [7]: 95%
Buffer Stability (37° C.) % Remaining (at 16-23 hours) SIF [7]: 57%
Buffer Stability (37° C.) % Remaining (at 16-23 hours) pH 1 [7]: 99%
Buffer Stability (37° C.) % Remaining (at 16-23 hours) pH 4.5 [7]: 93%
Buffer Stability (37° C.) % Remaining (at 16-23 hours) pH 6.6 [7]: 83%
Buffer Stability (37° C.) % Remaining (at 16-23 hours) pH 7.4 [7]: 82%
Buffer Stability (37° C.) % Remaining (at 16-23 hours) pH 9 [7]: 94%
Plasma Stability (37° C.) % Remaining (3-3.5 hours) rat [8]: 77%
Plasma Stability (37° C.) % Remaining (3-3.5 hours) nude mouse [9]: 78%
plasma prodrug, Dosed @ 50 mg, kg po (precursor phenolic compound dosed) ([10]; 1 h conc.): 23
plasma prodrug, Dosed @ 50 mg, kg po (precursor phenolic compound dosed) ([10]; 4 h conc.): 7

COc1ccc2[nH]c(-c3ccccc3)c(/C=C3\Oc4cc(O)ccc4C3=O)c2c1 [(2Z)-6-hydroxy-2-[(5-methoxy-2-phenyl-1H-indol-3-yl)methylene]-1-benzofuran-3(2H)-one]
pIC50 ([11]; read-out: PI3K alpha Mean IC50): 8.89
Papp A→B [1]: 0.03 ×10⁻⁶ cm/s
Papp B→A [1]: 0.11 ×10⁻⁶ cm/s
half-life [2, 12]: 15 min
half-life [2, 13]: 3 min
half-life [3, 14]: 19 min
half-life ([3]; nude, mouse, value after the slash in Table VIc, read-out: Microsome Stability (15 min) T ½ nude mouse, second value of cell): 4 min
half-life [4, 15]: 18 min
half-life ([4]; value after the slash in Table VIc, read-out: Microsome Stability (15 min) T ½ rat, second value of cell): 4 min
PAMPA Pe [6]: 0.18 10e−6 cm/s
Buffer Stability (37° C.) % Remaining (at 16-23 hours) SGF [7]: 93%
Buffer Stability (37° C.) % Remaining (at 16-23 hours) SIF [7]: 97%
Buffer Stability (37° C.) % Remaining (at 16-23 hours) pH 1 [7]: 97%
Buffer Stability (37° C.) % Remaining (at 16-23 hours) pH 4.5 [7]: 98%
Buffer Stability (37° C.) % Remaining (at 16-23 hours) pH 6.6 [7]: 98%
Buffer Stability (37° C.) % Remaining (at 16-23 hours) pH 7.4 [7]: 98%
Buffer Stability (37° C.) % Remaining (at 16-23 hours) pH 9 [7]: 99%
Plasma Stability (37° C.) % Remaining (3-3.5 hours) rat [8]: 111%
Plasma Stability (37° C.) % Remaining (3-3.5 hours) nude mouse [9]: 83%
plasma prodrug, Dosed @ 50 mg, kg po (precursor phenolic compound dosed) ([10]; first value, time not stated in Table VIIb): bql, bql
plasma prodrug, Dosed @ 50 mg, kg po (precursor phenolic compound dosed) ([10]; second value, time not stated in Table VIIb): bql, bql

COc1ccc2c(c1)c(/C=C1\Oc3cc(OC(=O)N(C)c4ccccc4)cc(OC(=O)N(C)c4ccccc4)c3C1=O)cn2CCCN(C)C [Example 2, (2Z)-2-({1-[3-(dimethylamino)propyl]-5-methoxy-1H-indol-3-yl}methylene)-3-oxo-2,3-dihydro-1-benzofuran-4,6-diyl bis[methyl(phenyl)carbamate]]
pIC50 [11]: < 5.00
Papp A→B [1]: 0.04 ×10⁻⁶ cm/s
Papp B→A [1]: 0.08 ×10⁻⁶ cm/s
half-life [2, 12]: 24 min
half-life [3, 16]: > 30 min
half-life [4, 15]: > 30 min
PAMPA Pe [6]: 0 10e−6 cm/s
Buffer Stability (37° C.) % Remaining (at 16-23 hours) SGF [7]: 100%
Buffer Stability (37° C.) % Remaining (at 16-23 hours) SIF [7]: 100%
Buffer Stability (37° C.) % Remaining (at 16-23 hours) pH 1 [7]: 100%
Buffer Stability (37° C.) % Remaining (at 16-23 hours) pH 4.5 [7]: 100%
Buffer Stability (37° C.) % Remaining (at 16-23 hours) pH 6.6 [7]: 100%
Buffer Stability (37° C.) % Remaining (at 16-23 hours) pH 7.4 [7]: 100%
Buffer Stability (37° C.) % Remaining (at 16-23 hours) pH 9 [7]: 100%
Plasma Stability (37° C.) % Remaining (3-3.5 hours) rat [8]: 22%
Plasma Stability (37° C.) % Remaining (3-3.5 hours) nude mouse [9]: 10%
plasma prodrug concentration ([10]; 0.5 h): 486 ng, ml
plasma prodrug concentration ([10]; 2 h): 757 ng, ml

COc1ccc2c(c1)c(/C=C1\Oc3cc(OC(=O)N(C(C)C)C(C)C)cc(OC(=O)N(C(C)C)C(C)C)c3C1=O)cn2CCCN(C)C [Example 4, (2Z)-2-({1-[3-(dimethylamino)propyl]-5-methoxy-1H-indol-3-yl}methylene)-3-oxo-2,3-dihydro-1-benzofuran-4,6-diyl bis(diisopropylcarbamate)]
pIC50 [11]: < 5.00
Papp A→B [1]: 0.16 ×10⁻⁶ cm/s
Papp B→A [1]: 0.06 ×10⁻⁶ cm/s
half-life [2, 12]: 6 min
half-life [3, 16]: 21 min
half-life [4, 15]: > 30 min
PAMPA Pe [6]: 0 10e−6 cm/s
Buffer Stability (37° C.) % Remaining (at 16-23 hours) SGF [7]: 100%
Buffer Stability (37° C.) % Remaining (at 16-23 hours) SIF [7]: 100%
Buffer Stability (37° C.) % Remaining (at 16-23 hours) pH 1 [7]: 100%
Buffer Stability (37° C.) % Remaining (at 16-23 hours) pH 4.5 [7]: 100%
Buffer Stability (37° C.) % Remaining (at 16-23 hours) pH 7.4 [7]: 100%
Buffer Stability (37° C.) % Remaining (at 16-23 hours) pH 9 [7]: 100%
Plasma Stability (37° C.) % Remaining (3-3.5 hours) rat [8]: 65%
Plasma Stability (37° C.) % Remaining (3-3.5 hours) nude mouse [9]: 64%
plasma prodrug concentration ([10]; 0.5 h): 411 ng, ml
plasma prodrug concentration ([10]; 2 h): 435 ng, ml

COc1ccc2c(c1)c(/C=C1\Oc3cc(OC(=O)N(C)C)cc(OC(=O)N(C)C)c3C1=O)cn2CCCN(C)C [Example 8, (2Z)-2-({1-[3-(dimethylamino)propyl]-5-methoxy-1H-indol-3-yl}methylene)-3-oxo-2,3-dihydro-1-benzofuran-4,6-diyl bis(dimethylcarbamate)]
pIC50 [11]: < 5.00
Papp A→B [1]: 4.82 ×10⁻⁶ cm/s
Papp B→A [1]: 7.22 ×10⁻⁶ cm/s
half-life [2, 12]: 15 min
half-life [3, 16]: 23 min
half-life [4, 15]: > 30 min
solubility [5]: 28 µg/mL (≈ 50.9 µM)
PAMPA Pe [6]: 4.53 10e−6 cm/s
Buffer Stability (37° C.) % Remaining (at 16-23 hours) SGF [7]: 100%
Buffer Stability (37° C.) % Remaining (at 16-23 hours) SIF [7]: 100%
Buffer Stability (37° C.) % Remaining (at 16-23 hours) pH 1 [7]: 100%
Buffer Stability (37° C.) % Remaining (at 16-23 hours) pH 4.5 [7]: 100%
Buffer Stability (37° C.) % Remaining (at 16-23 hours) pH 6.6 [7]: 100%
Buffer Stability (37° C.) % Remaining (at 16-23 hours) pH 7.4 [7]: 100%
Buffer Stability (37° C.) % Remaining (at 16-23 hours) pH 9 [7]: 91%
Plasma Stability (37° C.) % Remaining (3-3.5 hours) rat [8]: 50%
Plasma Stability (37° C.) % Remaining (3-3.5 hours) nude mouse [9]: 7%
plasma prodrug concentration ([10]; 0.5 h): 3122, ng, ml
tumor prodrug concentration ([10]; 0.5 h): 2170, ng, ml
plasma prodrug concentration ([10]; 2 h): 3876, ng, ml
tumor prodrug concentration ([10]; 2 h): 4820, ng, ml
tumor prodrug concentration ([10]; 6 h): 1482, ng, ml
plasma prodrug concentration ([10]; 6 h (third value)): 2170, ng, ml
plasma prodrug concentration ([10]; 10 h): 497 ng, ml
tumor prodrug concentration ([10]; 10 h): 556 ng, ml
plasma prodrug concentration ([10]; 24 h): 3 ng, ml
tumor prodrug concentration ([10]; 24 h): bql
blood 4-OH, 6-OR mono prodrug concentration (metabolite) ([10]; prodrug 50 mg, 24 h): bql
blood 6-OH, 4-OR mono prodrug concentration (metabolite) ([10]; prodrug 50 mg, 24 h): bql
tumor 4-OH, 6-OR mono prodrug concentration (metabolite) ([10]; prodrug 50 mg, 24 h): bql
tumor 6-OH, 4-OR mono prodrug concentration (metabolite) ([10]; prodrug 50 mg, 24 h): bql
blood precursor phenolic cpd concentration (metabolite) ([10]; prodrug 50 mg, all time points (0.5, 2, 6, 10, 24 h)): bql at all
